Experimental findings from patent publication US20080044829A1, “Biosensor Utilizing Pigment-Synthesizing Gene Of A Purple Non-Sulfur Bacterium And A Method For Preparing Such A Biosensor” (priority 2004, published 2008) are described below.

For assay [1], the system named is ddhA gene (promoter Pddh of ddh operon). Nature of the assay: RT-PCR analysis of ddhA gene transcription induction by sulfur compounds. The assay is classed as cell-based, Rv. sulfidophilum W-1S. The settings on record: 3 days in 4CMOM medium, bright aerobic and dark aerobic condition. On the procedure: Extraction of RNA was carried out using RNeasy Mini Kit (QIAGEN) according to the protocol attached thereto. For dissolving the cells at that time, lysozyme was added thereto in the indicated concentration. For the removal of the contaminated DNA, DNase I (TaKaRa) was used by the method indicated in the protocol together with the buffer attached thereto. Incubation was carried out at 37° C. for 30 minutes and, after that, RNA was purified via a PCI treatment and a precipitating operation with ethanol. A reverse transcription reaction was carried out where 1 μg of purified RNA as a template using an RNA PCR Kit (AMV) Ver. 2.1 (TaKaRa). In the reverse transcription reaction, things contained in the kit, i.e. reverse transcriptase, RNase inhibitor, random nonamer, buffer, dNTP and MgCl2 were used and the reaction was conducted at 45° C. for 28 minutes. A PCR was carried out by the same manner as in the above mentioned “4: PCR” using 4 μl of the solution after the reverse transcription reaction as a template.
Firstly, investigation of a DMS-inductive property of Pddh was planned. Primers ddhA1 and ddhA2 were designed based on ddhA gene sequence on the database. […]

The subject of another assay is DMS biosensor strain. Nature of the assay: Response of DMS biosensor strain (pSDMS in pigment variant): color tone and rate of red pigment by HPLC. The assay is classed as cell-based, Rv. sulfidophilum. The settings on record: third day of incubation, bright aerobic condition, n=3. On the procedure: When incubation of a bacterium strain was conducted in 10 ml of medium in a test tube under various conditions (under slightly aerobic and bright condition; under slightly aerobic and dark condition; and under anaerobic and bright condition), the incubation was done for three days. The culture liquid (1 ml) was placed in an Eppendorf tube, the pellets after centrifugal separation was frozen at −80° C. for 2 hours and then freeze-dried for one night. An appropriate amount (100 μl to 500 μl) of a mixed liquid of acetone and methanol was added to the resulting freeze-dried product, subjected to vortex for 2 minutes and then centrifuged for 5 minutes at 14,000 rpm using a portable centrifuge and the resulting supernatant liquid was used as a sample for an HPLC. […]
Since DMS is hardly soluble in water, ethanol was used as a solvent for the manufacture of concentrated stocks and preparation of diluted series. […] Analysis of pigment composition was conducted via an HPLC analysis the same as before and, from the value of area of each peak shown in the resulting HPLC chart, rate of red pigments (DMSO and SO) to the sum of total carotenoid pigment (DMSO, DMSE, SO, SE and neurosporene) was calculated. For each sample, mean value and standard deviation was calculated from the above value and a graph was prepared. […]

The next assay relates to SENS-AS strain. Nature of the assay: Specificity of SENS-AS strain to metals other than arsenic. The assay is classed as cell-based, Rv. sulfidophilum. An excerpt:
Therefore, specificity to metal of the SENS-AS strain was investigated by adding a sample containing metal other than arsenic to the SENS-AS strain and checking the responding property to those samples. With regard to the metal other than arsenic, there were used antimony and bismuth which have been reported to inherently show a responding property to ArsR and also cobalt, cadmium, nickel, zinc and lead where responding property in a protein having the similar sequence to metal-bonding site of ArsR has been confirmed already [L. S. Busenlehner, et al., (2003) FEMS Microbiol. Rev., 27:131-43]. The responding property was also tested for a solution in which iron, manganese, copper and aluminum which are abundantly contained in tap water were mixed. The experiment was carried out by the same method as in the detection of arsenic, rate of red pigments (DMSO and SO) to the total sum of DMSO, DMSE, SO and SE was calculated from the area value of each peak shown in the chart prepared as a result of an HPLC analysis, mean value and standard deviation for each sample were calculated and graphs were prepared.
From the above results, it was now made clear that the arsenic-detecting biosensor SENS-AS strain responded arsenic and bismuth. However, in order to respond to bismuth, a bismuth concentration of as high as 100-fold as compared with arsenic was necessary.

On to `CSC` [DMS, dimethyl sulfide], for which, in assay [1], the “ddhA gene transcription induction” value is listed as “apparent ddhA gene transcription induction was observed”. Moreover, the “DMS concentration giving significant accumulation of SO and discriminable color tone” value in the assay on DMS biosensor strain stood at 3 mM.

As for `[Bi]` [bismuth], the “concentration needed for response as compared with arsenic” value with SENS-AS strain amounted to 100 fold.

Take `C[S+](C)[O-]` [dimethyl sulfoxide]: the “ddhA gene transcription induction” value in assay [1] was “no significant induction of ddhA gene transcription”.
